For this experiment, the target named is T1, human kinase Mps-1 (Homo sapiens, UniProt P33981).
T1 construct: N-terminally GST-tagged human full length recombinant Mps-1 kinase; GST (N); purchased Invitrogen, Karslruhe, Germany PV4071
T1 sequence (P33981 1-857): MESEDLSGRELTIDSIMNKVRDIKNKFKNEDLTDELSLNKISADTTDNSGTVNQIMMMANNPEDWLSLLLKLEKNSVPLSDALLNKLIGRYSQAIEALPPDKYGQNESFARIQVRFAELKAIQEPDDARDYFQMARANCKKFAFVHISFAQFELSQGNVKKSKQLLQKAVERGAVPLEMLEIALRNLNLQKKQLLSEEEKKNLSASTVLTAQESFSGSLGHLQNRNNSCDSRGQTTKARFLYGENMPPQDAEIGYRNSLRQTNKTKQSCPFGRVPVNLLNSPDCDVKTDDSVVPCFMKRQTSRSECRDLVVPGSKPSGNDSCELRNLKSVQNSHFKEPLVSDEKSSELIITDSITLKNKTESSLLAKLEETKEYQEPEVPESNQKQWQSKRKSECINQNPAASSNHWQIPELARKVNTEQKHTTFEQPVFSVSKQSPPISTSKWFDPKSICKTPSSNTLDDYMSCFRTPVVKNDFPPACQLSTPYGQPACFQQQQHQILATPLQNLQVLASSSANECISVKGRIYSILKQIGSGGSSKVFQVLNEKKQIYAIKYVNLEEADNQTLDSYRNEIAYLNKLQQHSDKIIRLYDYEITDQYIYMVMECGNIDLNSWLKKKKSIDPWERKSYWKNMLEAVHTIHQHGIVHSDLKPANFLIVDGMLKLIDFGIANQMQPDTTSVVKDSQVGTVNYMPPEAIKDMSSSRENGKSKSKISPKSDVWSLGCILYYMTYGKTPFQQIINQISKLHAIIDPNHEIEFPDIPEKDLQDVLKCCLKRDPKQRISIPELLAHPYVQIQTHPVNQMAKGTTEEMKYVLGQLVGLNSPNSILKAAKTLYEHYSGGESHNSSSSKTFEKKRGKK
Put plainly: Mps-1 kinase assay (TR-FRET). The format is biochemical. The note with it: Mps-1 TR-FRET kinase assay; avg; read-out: Mps1 avg (IC50 [mol/l]). How it is done: The human kinase Mps-1 phosphorylates a biotinylated substrate peptide. Detection of the phosphorylated product is achieved by time-resolved fluorescence resonance energy transfer (TR-FRET) from Europium-labelled anti-phospho-Serine/Threonine antibody as donor to streptavidin labelled with cross-linked allophycocyanin (SA-XLent) as acceptor. Compounds are tested for their inhibition of the kinase activity.
N-terminally GST-tagged human full length recombinant Mps-1 kinase (purchased from Invitrogen, Karslruhe, Germany, cat. no PV4071) was used. As substrate for the kinase reaction a biotinylated peptide of the amino-acid sequence biotin-Ahx-PWDPDDADITEILG (C-terminus in amide form, purchased from Biosyntan GmbH, Berlin) was used.
For the assay 50 nl of a 100-fold concentrated solution of the test compound in DMSO was pipetted into a black low volume 384we11 microtiter plate (Greiner Bio-One, Frickenhausen, Germany), 2 μl of a solution of Mps-1 in assay buffer [0.1 mM sodium-ortho-vanadate, 10 mM MgCl2,2 mM DTT, 25 mM Hepes pH 7.7, 0.05% BSA (w/v), 0.001% Pluronic F-127] were added and the mixture was incubated for 15 min at 22° C. to allow pre-binding of the test compounds to Mps-1 before the start of the kinase reaction. Then the kinase reaction was started by the addition of 3 μl of a solution of 16.7 μM adenosine-tri-phosphate (ATP, 16.7 μM=>final conc. in the 5 μl assay volume is 10 μM) and peptide substrate (1.67 μM=>final conc. in the 5 μl assay volume is 1 μM) in assay buffer and the resulting mixture was incubated for a reaction time of 60 min at 22° C. The concentration of Mps-1 in the assay was adjusted to the activity of the enzyme lot and was chosen appropriate to have the assay in the linear range, typical enzyme concentrations were in the range of about 0.5 nM (final conc. in the 5 μl assay volume). The reaction was stopped by the addition of 5 μl of a solution of TR-FRET detection reagents (100 mM Hepes pH 7.4, 0.1% BSA, 40 mM EDTA, 140 nM Streptavidin-XLent [#61GSTXLB, Fa. Cis Biointernational, Marcoule, France], 1.5 nM anti-phospho(Ser/Thr)-Europium-antibody [#AD0180, PerkinElmer LAS, Rodgau-Jugesheinn, Germany]. Instead of the 1.5 nM anti-phospho(Ser/Thr)-Europium-antibody a mixture of 2 nM unlabeled anti-phospho ser/thr-pro antibody MPM-2 [Millipore cat. #05-368] and 1 nM LANCE EU-W1024 labeled anti-mouse IgG antibody [Perkin-Elmer, product no. AD0077] can be used).
The resulting mixture was incubated 1 h at 22° C. to allow the binding of the phosphorylated peptide to the anti-phospho(Ser/Thr)-Europium-antibody. Subsequently the amount of phosphorylated substrate was evaluated by measurement of the resonance energy transfer from the Europium-labelled anti-phospho(Ser/Thr) antibody to the Streptavidin-XLent. Therefore, the fluorescence emissions at 620 nm and 665 nm after excitation at 350 nm was measured in a Viewlux TR-FRET reader (PerkinElmer LAS, Rodgau-Jugesheinn, Germany). The “blank-corrected normalized ratio” (a Viewlux specific readout, similar to the traditional ratio of the emissions at 665 nm and at 622 nm, in which blank and Eu-donor crosstalk are subtracted from the 665 nm signal before the ratio is calculated) was taken as the measure for the amount of phosphorylated substrate. The data were normalised (enzyme reaction without inhibitor=0% inhibition, all other assay components but no enzyme=100% inhibition).
Background: Time-resolved FRET reads energy transfer from a long-lived donor to a nearby acceptor.

The source of these data is patent US20170334899A1, “AMINO-SUBSTITUTED ISOTHIAZOLES” (Bayer Pharma Aktiengesellschaft, priority 2014, published 2017).

As to `COC(=O)CNC(=O)c1cccc(NC(=O)c2c(C)nsc2Nc2cnc3ccccc3n2)c1` [Example 100, Methyl N-[3-({[3-methyl-5-(quinoxalin-2-ylamino)-1,2-thiazol-4-yl]carbonyl}amino)-benzoyl]glycinate], the IC50 turned out to be 12 µM.
In the case of `Cc1nsc(Nc2cnc(C(F)(F)F)cn2)c1C(=O)Nc1ccc(OC2CCN(CCF)CC2)c(F)c1` [Example 162, N-(3-fluoro-4-{[1-(2-fluoroethyl)piperidin-4-yl]oxy}phenyl)-3-methyl-5-{[5-(trifluoromethyl)pyrazin-2-yl]amino}-1,2-thiazole-4-carboxamide], the IC50 is above 20 µM.
As to `Cc1nsc(Nc2cnc(C(F)(F)F)cn2)c1C(=O)Nc1ccc(C(=O)NC2CCN(CC(F)(F)F)CC2)cc1` [Example 165, 3-methyl-N-(4-{[1-(2,2,2-trifluoroethyl)piperidin-4-yl]carbamoyl}phenyl)-5-{[5-(trifluoromethyl)pyrazin-2-yl]amino}-1,2-thiazole-4-carboxamide], the IC50 was above 20 µM.
On to `Cc1nsc(Nc2cnc(C(F)(F)F)cn2)c1C(=O)Nc1ccc(OC2CCN(C(C)C)CC2)nc1` [Example 160, N-{6-[(1-isopropylpiperidin-4-yl)oxy]pyridin-3-yl}-3-methyl-5-{[5-(trifluoromethyl)pyrazin-2-yl]amino}-1,2-thiazole-4-carboxamide], for which the IC50 is above 20 µM.
For `CCNS(=O)(=O)c1ccc(NC(=O)c2c(C)nsc2Nc2cnc3ccccc3n2)cc1` [Example 116, N-[4-(Ethylsulfamoyl)phenyl]-3-methyl-5-(quinoxalin-2-ylamino)-1,2-thiazole-4-carboxamide], the IC50 was at least 20 µM.
Consider `Cc1nsc(Nc2cnc3ccccc3n2)c1C(=O)Nc1ccc(C(=O)N2CCN(CC(F)F)CC2)cc1` [Example 157, N-(4-{[4-(2,2-difluoroethyl)piperazin-1-yl]carbonyl}phenyl)-3-methyl-5-(quinoxalin-2-ylamino)-1,2-thiazole-4-carboxamide], for which the IC50 is above 20 µM.
With `Cc1nsc(Nc2cnc(C(F)(F)F)cn2)c1C(=O)Nc1ccc(OC[C@@H]2CCN(CC(F)(F)F)C2)nc1` [Example 128, 3-Methyl-N-(6-{[(3R)-1-(2,2,2-trifluoroethyl)pyrrolidin-3-yl]methoxy}pyridin-3-yl)-5-{[5-(trifluoromethyl)pyrazin-2-yl]amino}-1,2-thiazole-4-carboxamide], the IC50 was above 20 µM.
Under `Cc1nsc(Nc2cnc3cc(F)ccc3n2)c1C(=O)Nc1ccc(S(N)(=O)=O)cc1` [Example 149, 5-[(6-fluoroquinoxalin-2-yl)amino]-3-methyl-N-(4-sulfamoylphenyl)-1,2-thiazole-4-carboxamide] stands above 20 µM; under `Cc1nsc(Nc2cnc(C(F)(F)F)cn2)c1C(=O)Nc1ccc(F)c(C(N)=O)c1` [Example 151, N-(3-carbamoyl-4-fluorophenyl)-3-methyl-5-{[5-(trifluoromethyl)pyrazin-2-yl]amino}-1,2-thiazole-4-carboxamide], above 20 µM.
Take `Cc1nsc(Nc2cnc3ccccc3n2)c1C(=O)Nc1cccc(C(=O)N[C@H](C(=O)O)[C@@H](C)OC(C)(C)C)c1` [Example 104, O-tert-Butyl-N-[3-({[3-methyl-5-(quinoxalin-2-ylamino)-1,2-thiazol-4-yl]-carbonyl}amino)benzoyl]threonine]: the IC50 turned out to be 16 µM.
For the compound `Cc1nsc(Nc2cc(C#N)ccn2)c1C(=O)Nc1ccc(Oc2cccnc2)nc1` [Example 119, 5-[(4-Cyanopyridin-2-yl)amino]-3-methyl-N-[6-(pyridin-3-yloxy)pyridin-3-yl]-1,2-thiazole-4-carboxamide], the IC50 was at least 20 µM.
For `Cc1nsc(Nc2ccc(C#N)cn2)c1C(=O)Nc1ccc(C(=O)OC(C)(C)C)cc1` [Example 98, tert-Butyl 4-[({5-[(5-cyanopyridin-2-yl)amino]-3-methyl-1,2-thiazol-4-yl}carbonyl)-amino]benzoate], the IC50 was at least 20 µM.
